Drawing on patent US11746100B2 (GLOBAL BLOOD THERAPEUTICS, INC., priority 2020, dated 2023), this text covers pEC50 for 28 compounds.

In this assay the target is T1, human ferroportin (Homo sapiens, UniProt Q9NP59).
T1 construct: luciferase reporter (read with the Nano-Glo Luciferase Assay System); expressed in transfected cells; host or cells: CHO cells, stably transfected, expression induced with doxycycline
T1 sequence (Q9NP59 1-571): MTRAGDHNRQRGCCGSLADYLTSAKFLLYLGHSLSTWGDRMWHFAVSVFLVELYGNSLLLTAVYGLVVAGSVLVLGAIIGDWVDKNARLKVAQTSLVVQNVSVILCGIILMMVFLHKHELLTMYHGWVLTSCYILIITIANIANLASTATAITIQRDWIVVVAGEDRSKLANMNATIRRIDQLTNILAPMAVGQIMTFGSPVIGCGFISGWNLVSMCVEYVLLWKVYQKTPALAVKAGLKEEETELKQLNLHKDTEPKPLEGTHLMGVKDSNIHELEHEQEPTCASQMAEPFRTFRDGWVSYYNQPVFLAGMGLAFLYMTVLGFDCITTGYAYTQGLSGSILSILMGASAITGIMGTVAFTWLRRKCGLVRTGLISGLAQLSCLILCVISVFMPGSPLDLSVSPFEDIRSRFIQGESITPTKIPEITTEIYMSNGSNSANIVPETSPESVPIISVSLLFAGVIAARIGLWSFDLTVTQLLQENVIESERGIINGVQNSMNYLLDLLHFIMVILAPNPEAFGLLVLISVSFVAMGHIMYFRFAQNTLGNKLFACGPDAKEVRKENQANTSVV
Nature of the assay: Biological in-vitro ferroportin internalization assay (luciferase reporter). The assay is classed as cell-based. The note with it: average pEC50; stably-transfected CHO cell line expressing human ferroportin tagged to a luciferase reporter; 6 h incubation with test compound. The gist of the method:
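Read-out is Nano-Glo luciferase signal after 6 h compound exposure, with average pEC50 derived. Cells are a stable CHO line carrying luciferase-tagged human ferroportin, pre-loaded 24 h with ferric ammonium citrate and doxycycline-induced for 24 h.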
(Reporter assays use an easily measured gene product as a stand-in for the process of interest.)
Take `COc1cccnc1-c1nc2c(c(N(C)CC(=O)NC(C)(C)C)n1)CCC2` [Compound 180, N-tert-butyl-2-{[2-(3-methoxypyridin-2-yl)-5H,6H,7H-cyclopenta[d]pyrimidin-4-yl](methyl)amino}acetamide]: the pEC50 was determined as 5.2. Regarding `CC(C)NC(=O)CN(C)c1nc(-c2cc(OCCN3CCN(C)CC3)ccn2)nc2c1CCC2` [Compound 432, 2-[methyl(2-{4-[2-(4-methylpiperazin-1-yl)ethoxy]pyridin-2-yl}-5H,6H,7H-cyclopenta[d]pyrimidin-4-yl)amino]-N-(propan-2-yl)acetamide], the pEC50 was found to be 7.5. The same measure for `CO[C@@H]1CCN(CCOc2ccnc(-c3nc4c(c(N(C)CC(=O)NC(C)(C)C)n3)CCC4)c2)C1` [Compound 463, N-tert-butyl-2-{[2-(4-{2-[(3R)-3-methoxypyrrolidin-1-yl]ethoxy}pyridin-2-yl)-5H,6H,7H-cyclopenta[d]pyrimidin-4-yl](methyl)amino}acetamide]: 8.1; for `CN(CC(=O)NC1CCCCC1)c1nc(-c2cn(C)cn2)nc2c1CCC2` [Compound 142, N-cyclohexyl-2-{methyl[2-(1-methyl-1H-imidazol-4-yl)-5H,6H,7H-cyclopenta[d]pyrimidin-4-yl]amino}acetamide]: 7.4; for `CN(CC(=O)N1CCCCC1)c1nc(-c2cc(OCC(C)(C)O)ccn2)nc2c1CCC2` [Compound 382, 2-({2-[4-(2-hydroxy-2-methylpropoxy)pyridin-2-yl]-5H,6H,7H-cyclopenta[d]pyrimidin-4-yl}(methyl)amino)-1-(piperidin-1-yl)ethan-1-oneide]: 7.8. On to `CN(CC(=O)NC1CC1)c1nc(-c2cc(OCC(C)(C)O)ccn2)nc2c1CCC2` [Compound 398, N-cyclopropyl-2-({2-[4-(2-hydroxy-2-methylpropoxy)pyridin-2-yl]-5H,6H,7H-cyclopenta[d]pyrimidin-4-yl}(methyl)amino)acetamide], for which the pEC50 is 8.1. The same measure for `Cc1ccc(NC(=O)CN(C)c2nc(-c3cc(OCC4(O)CC4)ccn3)nc3c2CCC3)cn1` [Compound 330, 2-[(2-{4-[(1-hydroxycyclopropyl)methoxy]pyri-din-2-yl}-5H,6H,7H-cyclopenta[d]pyrimidin-4-yl)(methyl)amino]-N-(6-methylpyridin-3-yl)acetamide]: 7.8. In turn, `CN(CC(=O)NC(C)(C)C)c1nc(-c2cc(CCO)ccn2)nc2c1CCC2` [Compound 113, N-tert-butyl-2-({2-[4-(2-hydroxyethyl)pyridin-2-yl]-5H,6H,7H-cyclopenta[d]pyrimidin-4-yl}(methyl)amino)acetamide] yielded a negative-log EC50 (pEC50) of 7.7. In turn, `CNCCCc1ccnc(-c2nc3c(c(N(C)CC(=O)NC(C)(C)C)n2)CCC3)c1` [Compound 480, N-tert-butyl-2-[methyl(2-{4-[3-(methylamino)propyl]pyridin-2-yl}-5H,6H,7H-cyclopenta[d]pyrimidin-4-yl)amino]acetamide] registered a pEC50 of 7.3. `Cc1cnc(CCNC(=O)CN(C)c2nc(-c3ccccn3)nc3c2CCC3)n1C1CCC1` [Compound 69, N-[2-(1-cyclobutyl-5-methyl-1H-imidazol-2-yl)ethyl]-2-{methyl[2-(pyridin-2-yl)-5H,6H,7H-cyclopenta[d]pyrimidin-4-yl]amino}acetamide] registered a negative-log EC50 (pEC50) of 7. To `CC(C)NC(=O)CN(C)c1nc(-c2cc(OCCN3CCOCC3=O)ccn2)nc2c1CCC2` [Compound 436, 2-[methyl(2-{4-[2-(3-oxomorpholin-4-yl)ethoxy]pyridin-2-yl}-5H,6H,7H-cyclopenta[d]pyrimidin-4-yl)amino]-N-(propan-2-yl)acetamide] belongs 7.3; to `CC(C)NC(=O)CN(C)c1nc(-c2cc(OCCN(C)C)ccn2)nc2c1CCC2(C)C` [Compound 456, 2-[(2-{4-[2-(dimethylamino)ethoxy]pyridin-2-yl}-7,7-dimethyl-5H,6H,7H-cyclopenta[d]pyrimidin-4-yl)(methyl)amino]-N-(propan-2-yl)acetamide], 6.2; to `CC(C)NC(=O)[C@@H](C)N(C)c1nc(-c2cc(OCCN(C)C)ccn2)nc2c1CCC2` [Compound 433, (2R)-2-[(2-{4-[2-(dimethylamino)ethoxy]pyridin-2-yl}-5H,6H,7H-cyclopenta[d]pyrimidin-4-yl)(methyl)amino]-N-(propan-2-yl)propanamide], 8.0. Regarding `CN(CC(=O)Nc1ccc(F)cc1)c1nc(-c2cc3cn[nH]c3cn2)nc2c1CCC2` [Compound 289, N-(4-fluorophenyl)-2-[methyl(2-{1H-pyrazolo[3,4-c]pyridin-5-yl}-5H,6H,7H-cyclopenta[d]pyrimidin-4-yl)amino]acetamide], the pEC50 was determined as 7.5. The same measure for `CN(CC(=O)NC(C)(C)C)c1nc(-c2cc(OC[C@@H]3COC(C)(C)O3)ccn2)nc2c1CCC2` [Compound 414, N-tert-butyl-2-{[2-(4-{[(4R)-2,2-dimethyl-1,3-dioxolan-4-yl]methoxy}pyridin-2-yl)-5H,6H,7H-cyclopenta[d]pyrimidin-4-yl](methyl)amino}acetamide]: 8.3. To `CN(CC(=O)N1CCC(F)(F)CC1)c1nc(-c2cc(OCCO)ccn2)nc2c1CCC2` [Compound 355, 1-(4,4-difluoropiperidin-1-yl)-2-({2-[4-(2-hydroxyethoxy)pyridin-2-yl]-5H,6H,7H-cyclopenta[d]pyrimidin-4-yl}(methyl)amino)ethan-1-one] belongs 7.7; to `CN(C)CCOc1ccnc(-c2nc(N(C)CC(=O)NC(C)(C)C)c3c(n2)C(C)(C)CC3)c1` [Compound 457, N-tert-butyl-2-[(2-{4-[2-(dimethylamino)ethoxy]pyridin-2-yl}-7,7-dimethyl-5H,6H,7H-cyclopenta[d]pyrimidin-4-yl)(methyl)amino]acetamide], 6.3; to `CN(CC(=O)NC(C)(C)C)c1nc(-c2cc(OC3COC3)ccn2)nc2c1CCC2` [Compound 245, N-tert-butyl-2-[methyl({2-[4-(oxetan-3-yloxy)pyridin-2-yl]-5H,6H,7H-cyclopenta[d]pyrimidin-4-yl})amino]acetamide], 7.7.

Consider `CN(C)c1ccnc(-c2nc3c(c(N4CCCCCC4)n2)CCC3)c1` [Compound 13, 2-[4-(azepan-1-yl)-5H,6H,7H-cyclopenta[d]pyrimidin-2-yl]-N,N-dimethylpyridin-4-amine], for which the pEC50 is 6.4.

For the compound `Cc1cncc(NC(=O)CN(C)c2nc(-c3cc4ccccc4cn3)nc3c2CCC3)c1` [Compound 235, 2-{[2-(isoquinolin-3-yl)-5H,6H,7H-cyclopenta[d]pyrimidin-4-yl](methyl)amino}-N-(5-methylpyridin-3-yl)acetamide], the pEC50 was determined as 7.5. As for `CN(CC(=O)NC(C)(C)C)c1nc(-c2ccc(CCO)cn2)nc2c1CCC2` [Compound 43, N-tert-butyl-2-({2-[5-(2-hydroxyethyl)pyridin-2-yl]-5H,6H,7H-cyclopenta[d]pyrimidin-4-yl}(methyl)amino)acetamide], the pEC50 came out at 7. Regarding `C[C@H](C(=O)NC1(C)CC1)N(C)c1nc(-c2ccccn2)nc2c1CCC2` [Compound 204, (2R)-2-{methyl[2-(pyridin-2-yl)-5H,6H,7H-cyclopenta[d]pyrimidin-4-yl]amino}-N-(1-methylcyclopropyl)propanamide], the pEC50 is on record as 6.9.

For `COc1cnc(NC(=O)CN(C)c2nc(-c3cc(OCCO)ccn3)nc3c2CCC3)cn1` [Compound 290, 2-({2-[4-(2-hydroxyethoxy)pyridin-2-yl]-5H,6H,7H-cyclopenta[d]pyrimidin-4-yl}(methyl)amino)-N-(5-methoxypyrazin-2-yl)acetamide], the pEC50 was 7.6.

As to `COc1ccnc(-c2nc3c(c(N(C)CC(=O)Nc4cnc(OC)nc4)n2)CCC3)c1` [Compound 153, 2-{[2-(4-methoxypyridin-2-yl)-5H,6H,7H-cyclopenta[d]pyrimidin-4-yl](methyl)amino}-N-(2-methoxypyrimidin-5-yl)acetamide], the pEC50 is on record as 7.6.

As for `COc1ccc(NC(=O)CN(C)c2nc(-c3cc4ncccc4cn3)nc3c2CCC3)cn1` [Compound 257, N-(6-methoxypyridin-3-yl)-2-{methyl[2-(1,6-naphthyridin-7-yl)-5H,6H,7H-cyclopenta[d]pyrimidin-4-yl]amino}acetamide], the pEC50 came to 7. `Cc1ccnc(-c2nc3c(c(N(C)CC(=O)NC(C)(C)CO)n2)CCC3)c1` [Compound 62, N-(1-hydroxy-2-methylpropan-2-yl)-2-{methyl[2-(4-methylpyridin-2-yl)-5H,6H,7H-cyclopenta[d]pyrimidin-4-yl]amino}acetamide] had a negative logarithm of the EC50 (pEC50) of 7.6. Compound `CN(CC(=O)NC(C)(C)CO)c1nc(-c2cn(C)cn2)nc2c1CCC2` [Compound 143, N-(1-hydroxy-2-methylpropan-2-yl)-2-{methyl[2-(1-methyl-1H-imidazol-4-yl)-5H,6H,7H-cyclopenta[d]pyrimidin-4-yl]amino}acetamide] came in with a negative-log EC50 (pEC50) of 7.2.

`CN(CCOc1ccccc1)c1nc(-c2ccccn2)nc2c1CCC2` [Compound 87, N-methyl-N-(2-phenoxyethyl)-2-(pyridin-2-yl)-5H,6H,7H-cyclopenta[d]pyrimidin-4-amine] had a pEC50 of 6.6.

One may read the pEC50 as −log10 of the EC50, conventionally taken in molar units. The low end stands for a large EC50, the high end for a small EC50.
